Like-named read-outs stand apart in the source and are kept apart here.
What was measured:
Type in all cases: in vivo
Kochia (Kochia scoparia) [1] = experiment: Test A preemergence; details: Bassia scoparia, pre-emergence, 240 h, preemergence, 0 to 100 scale where 0 is no effect and 100 is complete control, read-out: Kochia plant response rating; for pest or weed control at 125 g/ha: 125 g ai/ha, approx. 10 d; for pest or weed control at 500 g/ha: 500 g ai/ha
Outline: (§1)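 Visual injury, scored on a 0–100 scale relative to untreated controls, was recorded about 10 d after application. Treatments were a preemergence soil spray over planted seeds or a postemergence spray on plants at the one- to two-leaf stage, 2 to 10 cm tall, all in loam soil–sand blend in the greenhouse.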

[2] = tested on: barnyardgrass (Echinochloa crus-galli); experiment: Test A preemergence; details: Echinochloa crus-galli, pre-emergence, 240 h, preemergence, 0 to 100 scale where 0 is no effect and 100 is complete control, read-out: Barnyardgrass plant response rating; for pest or weed control at 125 g/ha: 125 g ai/ha, approx. 10 d; for pest or weed control at 500 g/ha: 500 g ai/ha
Outline: as §1

[3] = tested on: giant foxtail (Setaria faberii); experiment: Test A preemergence; details: Setaria faberi, pre-emergence, 240 h, preemergence, 0 to 100 scale where 0 is no effect and 100 is complete control, read-out: Foxtail, Giant plant response rating; for pest or weed control at 125 g/ha: 125 g ai/ha, approx. 10 d; for pest or weed control at 500 g/ha: 500 g ai/ha
Outline: as §1

[4] = tested on: pigweed (Amaranthus retroflexus); experiment: Test A preemergence; details: Amaranthus retroflexus, pre-emergence, 240 h, preemergence, 0 to 100 scale where 0 is no effect and 100 is complete control, read-out: Pigweed plant response rating; for pest or weed control at 125 g/ha: 125 g ai/ha, approx. 10 d; for pest or weed control at 500 g/ha: 500 g ai/ha
[5] = tested on: ragweed (common ragweed, Ambrosia elatior); experiment: Test A preemergence; details: Ambrosia artemisiifolia, pre-emergence, 240 h, preemergence, 0 to 100 scale where 0 is no effect and 100 is complete control, read-out: Ragweed plant response rating; for pest or weed control at 125 g/ha: 125 g ai/ha, approx. 10 d; for pest or weed control at 500 g/ha: 500 g ai/ha
Outline: as §1

[6] = tested on: ryegrass, Italian (Italian ryegrass, Lolium multiflorum); experiment: Test A preemergence; details: Lolium multiflorum, pre-emergence, 240 h, preemergence, 0 to 100 scale where 0 is no effect and 100 is complete control, read-out: Ryegrass, Italian plant response rating; for pest or weed control at 125 g/ha: 125 g ai/ha, approx. 10 d; for pest or weed control at 500 g/ha: 500 g ai/ha
Outline: as §1

Kochia (Kochia scoparia) [7] = experiment: Test A postemergence; details: Bassia scoparia, post-emergence, 240 h, postemergence; for pest or weed control at 125 g/ha: 125 g ai/ha; for pest or weed control at 500 g/ha: 500 g ai/ha, 0 to 100 scale, 0 is no effect, 100 is complete control
Outline: as §1

[8] = tested on: barnyardgrass (Echinochloa crus-galli); experiment: Test A postemergence; details: Echinochloa crus-galli, post-emergence, 240 h, postemergence; for pest or weed control at 125 g/ha: 125 g ai/ha; for pest or weed control at 500 g/ha: 500 g ai/ha, 0 to 100 scale, 0 is no effect, 100 is complete control
Outline: as §1

[9] = tested on: giant foxtail (Setaria faberii); experiment: Test A postemergence; details: Setaria faberi, post-emergence, 240 h, postemergence; for pest or weed control at 125 g/ha: 125 g ai/ha; for pest or weed control at 500 g/ha: 500 g ai/ha, 0 to 100 scale, 0 is no effect, 100 is complete control
Outline: as §1

[10] = tested on: wheat (Triticum aestivum); experiment: Test A postemergence; details: Triticum aestivum, post-emergence, 240 h, postemergence; for plant injury at 125 g/ha: 125 g ai/ha; for plant injury at 500 g/ha: 500 g ai/ha, 0 to 100 scale, 0 is no effect, 100 is complete control
Outline: as §1

[11] = tested on: barnyardgrass (Echinochloa crus-galli); experiment: Test B flooded paddy test; details: Echinochloa crus-galli, 250 g ai/ha, Flood; 0 to 100 scale where 0 is no effect and 100 is complete control; read-out: Barnyardgrass plant response rating
Outline: (§2)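 Compound goes directly into floodwater once pots are flooded 3 cm above soil, targeting plants at two leaves; the water depth is then held for the test duration. Plants sit 13–15 d in a greenhouse and are rated visually, 100 denoting complete control.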

[12] = tested on: ducksalad (Heteranthera limosa); experiment: Test B flooded paddy test; details: Heteranthera limosa, 250 g ai/ha, Flood; 0 to 100 scale where 0 is no effect and 100 is complete control; read-out: Ducksalad plant response rating
Outline: as §2

rice (Oryra sativa) = experiment: Test B flooded paddy test; details: Oryza sativa, 250 g ai/ha, Flood; 0 to 100 scale where 0 is no effect and 100 is complete control; read-out: Rice plant response rating
Outline: as §2

[13] = tested on: sedge, umbrella (small-flower umbrella sedge, Cyperus difformis); experiment: Test B flooded paddy test; details: Cyperus difformis, 250 g ai/ha, Flood; 0 to 100 scale where 0 is no effect and 100 is complete control; read-out: Sedge, Umbrella plant response rating
Outline: as §2

[14] = visual injury on 0 to 100 scale (0 no effect, 100 complete control), approx. 10 d, read-out: Kochia plant response rating
[15] = read-out: Kochia plant response rating
[16] = visual injury on 0 to 100 scale (0 no effect, 100 complete control), approx. 10 d, read-out: Barnyardgrass plant response rating
[17] = read-out: Barnyardgrass plant response rating
[18] = visual injury on 0 to 100 scale (0 no effect, 100 complete control), approx. 10 d, read-out: Foxtail, Giant plant response rating
[19] = read-out: Foxtail, Giant plant response rating
[20] = visual injury on 0 to 100 scale (0 no effect, 100 complete control), approx. 10 d, read-out: Wheat plant response rating
[21] = read-out: Wheat plant response rating
[22] = visual injury vs untreated controls after approx. 10 d, 0 = no effect, 100 = complete control, read-out: Kochia plant response rating (0 to 100 scale)
[23] = visual injury vs untreated controls after approx. 10 d, 0 = no effect, 100 = complete control, read-out: Barnyardgrass plant response rating (0 to 100 scale)
[24] = visual injury vs untreated controls after approx. 10 d, 0 = no effect, 100 = complete control, read-out: Foxtail, Giant plant response rating (0 to 100 scale)
[25] = visual injury vs untreated controls after approx. 10 d, 0 = no effect, 100 = complete control, read-out: Wheat plant response rating (0 to 100 scale)

Compound | pest or weed control at 125 g/ha (Kochia (Kochia scoparia) [1]) [%] | pest or weed control at 500 g/ha (Kochia (Kochia scoparia) [1]) [%] | pest or weed control at 125 g/ha [2] [%] | pest or weed control at 500 g/ha [2] [%] | pest or weed control at 125 g/ha [3] [%] | pest or weed control at 500 g/ha [3] [%] | pest or weed control at 125 g/ha [4] [%] | pest or weed control at 500 g/ha [4] [%] | pest or weed control at 125 g/ha [5] [%] | pest or weed control at 500 g/ha [5] [%] | pest or weed control at 125 g/ha [6] [%] | pest or weed control at 500 g/ha [6] [%] | pest or weed control at 500 g/ha (Kochia (Kochia scoparia) [7]; [15]) [%] | pest or weed control at 500 g/ha [8, 17] [%] | pest or weed control at 500 g/ha [9, 19] [%] | plant injury at 500 g/ha [10, 21] [%] | pest or weed control at 250 g/ha [11] [%] | pest or weed control at 250 g/ha [12] [%] | pest or weed control at 250 g/ha (rice (Oryra sativa)) [%] | pest or weed control at 250 g/ha [13] [%] | further results
CC(C)Oc1ccc([C@H]2CNC(=O)[C@@H]2C(=O)Nc2cccc(F)c2F)cc1 [Compound 1136] | 0 | 80 | 30 | 90 | 30 | 90 | 0 | 0 | 0 | 0 | 0 | 30 | 0 | 90 | 90 | 0 | 0 | 85 | 0 | 0 | pest or weed control at 125 g/ha (Kochia (Kochia scoparia) [7]; [14]): 0%; pest or weed control at 125 g/ha [8, 16]: 30%; pest or weed control at 125 g/ha [9, 18]: 20%; plant injury at 125 g/ha [10, 20]: 0%
CC(C)Oc1ccc([C@H]2CNC(=O)[C@@H]2C(=O)Nc2ccc(F)cc2F)cc1 [Compound 1137] | 0 | 0 | 0 | 0 | 0 | 0 | 0 | 0 | 0 | 0 | 0 | 0 | 0 | 0 | 0 | 0 | 0 | 0 | 0 | 0 | pest or weed control at 125 g/ha (Kochia (Kochia scoparia) [7]; [14]): 0%; pest or weed control at 125 g/ha [8, 16]: 0%; pest or weed control at 125 g/ha [9, 18]: 0%; plant injury at 125 g/ha [10, 20]: 0%
CCc1cc(CC)cc([C@H]2CNC(=O)[C@@H]2C(=O)Nc2ccccc2F)c1 [Compound 1138] | 0 | 80 | 90 | 90 | 90 | 90 | 0 | 0 | 0 | 0 | 30 | 50 | 0 | 90 | 90 | 70 | 60 | 75 | 0 | 0 | pest or weed control at 125 g/ha (Kochia (Kochia scoparia) [7]; [14]): 0%; pest or weed control at 125 g/ha [8, 16]: 90%; pest or weed control at 125 g/ha [9, 18]: 50%; plant injury at 125 g/ha [10, 20]: 30%
CCc1cc([C@H]2CN(C)C(=O)[C@@H]2C(=O)Nc2ccccc2F)cs1 [Compound 1156] | 70 | 80 | 90 | 90 | 90 | 100 | 0 | 20 | 100 | 100 | 20 | 30 | 20 | 90 | 90 | 50 | 40 | 100 | 20 | 0 | pest or weed control at 125 g/ha (Kochia (Kochia scoparia) [7]; [22]): 0%; pest or weed control at 125 g/ha [8, 23]: 90%; pest or weed control at 125 g/ha [9, 24]: 90%; plant injury at 125 g/ha [10, 25]: 20%
O=C1NCC[C@H](c2cccc(Cl)c2)[C@H]1C(=O)Nc1ccccc1F [Compound 1159] | 0 | 30 | 60 | 90 | 70 | 90 | 0 | 0 | 0 | 0 | 0 | 0 | 0 | 90 | 70 | 0 | 0 | 70 | 0 | 0 | pest or weed control at 125 g/ha (Kochia (Kochia scoparia) [7]; [22]): 0%; pest or weed control at 125 g/ha [8, 23]: 90%; pest or weed control at 125 g/ha [9, 24]: 40%; plant injury at 125 g/ha [10, 25]: 0%
